Data taken from ChEMBL document CHEMBL3600367, “Anti-plasmodial activity of bradykinin and analogs” (Bioorg Med Chem Lett, 2015).
Calls of active or inactive are those of the source. The calls are words filed in the database; no cut-off is given here. Residues, ends and D or L forms follow the SMILES beside them.

Key:
Plasmodium falciparum = assay: Antiplasmodial activity against Plasmodium falciparum W2 schizonts infected in human erythrocytes assessed as appearance of intracellular ring forms at 10^-8 mol/L after 24 hrs by Diff quick staining-based light microscopic analysis; assay type: functional, organism-based
Plasmodium gallinaceum = assay: Antiplasmodial activity against mature Plasmodium gallinaceum sporozoites isolated from Aedes aegypti RED assessed as increase in membrane permeability at 60 umol/L after 1 hr by propidium iodide staining-based inverted fluorescence microscopic analysis; assay type: functional
[1] = Metabolic stability in plasma (unknown origin); assay type: ADME, cell-free

Stability [1] | Compound | Activity (Plasmodium falciparum) | Activity (Plasmodium gallinaceum)
 | CC(C)C[C@H](NC(=O)[C@@H]1CCCN1C(=O)[C@H](CO)NC(=O)[C@H](Cc1ccccc1)NC(=O)[C@H](CO)NC(=O)[C@H](CCCNC(=N)N)NC(=O)[C@@H](NC(=O)[C@@H]1CCCN1C(=O)[C@H](CC(C)C)NC(=O)CNC(=O)[C@@H]1CCCN1C(=O)[C@@H]1CCCN1C(=O)[C@@H](N)CCCNC(=N)N)C(C)C)C(=O)N[C@@H](CCCNC(=N)N)C(N)=O (H-RPPGLPVRSFSPLR-NH2) | inactive | Active
Stable | CC(C)C[C@@H](N)C(=O)N1CCC[C@@H]1C(=O)N[C@H](CO)C(=O)N[C@H](CCC(=O)O)C(=O)N[C@H](Cc1ccccc1)C(=O)N[C@H](CCCNC(=N)N)C(=O)N[C@@H](C(=O)N1CCC[C@@H]1C(=O)N[C@H](CC(C)C)C(=O)NCC(=O)N1CCC[C@@H]1C(=O)N[C@H](CCCNC(=N)N)C(N)=O)C(C)C | inactive | Active
Stable | CC(C)C[C@@H](NC(=O)[C@H]1CCCN1C(=O)[C@H](NC(=O)[C@@H](CCCNC(=N)N)NC(=O)[C@@H](CO)NC(=O)[C@@H](Cc1ccccc1)NC(=O)[C@@H](CO)NC(=O)[C@H]1CCCN1C(=O)[C@@H](CC(C)C)NC(=O)[C@H](N)CCCNC(=N)N)C(C)C)C(=O)NCC(=O)N1CCC[C@@H]1C(=O)N1CCC[C@@H]1C(=O)N[C@H](CCCNC(=N)N)C(N)=O | inactive | 
 | CC(C)C[C@H](NC(=O)[C@@H]1CCCN1C(=O)[C@H](CO)NC(=O)[C@H](CCC(=O)O)NC(=O)[C@H](Cc1ccccc1)NC(=O)[C@H](CCCNC(=N)N)NC(=O)[C@@H](NC(=O)[C@@H]1CCCN1C(=O)[C@H](CC(C)C)NC(=O)CNC(=O)[C@@H]1CCCN1C(=O)[C@@H](N)CCCNC(=N)N)C(C)C)C(N)=O (H-RPGLPVRFESPL-NH2) | inactive | inactive
 | N=C(N)NCCC[C@H](NC(=O)[C@H](Cc1ccccc1)NC(=O)[C@@H]1CCCN1C(=O)[C@H](CO)NC(=O)[C@H](Cc1ccccc1)NC(=O)CNC(=O)[C@@H]1CCCN1C(=O)[C@@H]1CCCN1C(=O)[C@@H](N)CCCNC(=N)N)C(=O)O [BRADYKININ] (H-RPPGFSPFR-OH) | inactive | 98%
 | CC[C@H](C)[C@H](NC(=O)[C@H](Cc1ccc(O)cc1)NC(=O)[C@@H](NC(=O)[C@H](CCCNC(=N)N)NC(=O)[C@@H](N)CC(=O)O)C(C)C)C(=O)N[C@@H](Cc1cnc[nH]1)C(=O)N1CCC[C@H]1C(=O)N[C@@H](Cc1ccccc1)C(=O)O [ANGIOTENSIN II] |  | 88%
